From paper PMC9692247 (Pharmaceuticals, 2022)
One block for each compound: values may come before it.

Columns and labels:
[1] = target: T1, recombinant zfHDAC6 (HDAC6 CD2) (Danio rerio, UniProt F8W4B7); test: Fluorescence polarization (FP) competition assay with FITC-M344; format: binding, Danio rerio (zebrafish); conditions: for IC50: 300 nM HDAC6 CD2, 50 nM FITC-M344, read-out: Fluorescence polarization IC50 against zfHDAC6
T1 construct: HDAC6 from Danio rerio (zebrafish; catalytic domain 2, S440-R798); His-SUMO (N, cleaved yes); made in house; host or cells: E. coli BL21 (DE3) RILP
T1 sequence (F8W4B7 440-798): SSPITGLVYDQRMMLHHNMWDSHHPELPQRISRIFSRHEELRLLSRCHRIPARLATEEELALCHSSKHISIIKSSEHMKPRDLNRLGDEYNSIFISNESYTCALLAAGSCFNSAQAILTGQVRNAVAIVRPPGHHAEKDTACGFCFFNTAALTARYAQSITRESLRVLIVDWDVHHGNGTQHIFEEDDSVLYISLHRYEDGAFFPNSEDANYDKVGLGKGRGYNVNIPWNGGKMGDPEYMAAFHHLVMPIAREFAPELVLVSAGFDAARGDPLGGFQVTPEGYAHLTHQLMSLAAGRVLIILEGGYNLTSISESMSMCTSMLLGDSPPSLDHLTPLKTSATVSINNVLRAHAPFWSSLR
Description: The FP assay was conducted in a Greiner Bio-one black 384-well, nonbinding microplate (Cat 781900) as previous described. These studies were performed in FP buffer (20 mM HEPES pH 8.0, 137 mM NaCl, 3 mM KCl, 1 mM TCEP, 5% DMSO). Binding experiments were performed in the presence of 50 nM FITC-M344 synthesized as described by Mazitschek et al. and titrated with 0–3 µM HDAC6. Competition assays were performed by titrating 0–100 µM inhibitor to 300 nM HDAC6 CD2 and preincubating the samples for 10 min prior to addition of 50 nM FITC-M344 in FP buffer. The assay mixture was incubated for an additional 10 min before FP measurement. Polarization measurements were collected using Infinite M1000-Tecan (ex/em = 470 nm/530 nm) and data were plotted and fitted using Prism GraphPad 6 built-in function, log(inhibitor) vs. response—variable slope (four parameters).

[2] = Plasma stability evaluation; format: in vitro ADME; conditions: read-out: T1/2 in plasma
[3] = In vivo PK study in CD-1 male mice (plasma); set-up: species or system CD-1 mice
Description: (§1) In vivo mouse studies were performed at Pharmaron in CD-1 male mice in triplicate. The test compounds were formulated within a 4 mg/mL solution (10% DMA, 65% PEG400, 25% saline). CD-1 mice were administered the test compound (50 mg/kg, I.P) once, and blood samples were obtained from each mouse at 0.25, 0.5, 1, 2, 4, 8, and 24 h post-dose. The mice had free access to food and water, were inspected for clinical signs and were weighted once prior to dosing. The working solutions of 5 μL at different concentrations (2, 4, 10, 20, 100, 200, 1000, 2000 ng/mL) were added to CD-1 mouse plasma (10 μL) to generate calibration standards of 1, 2, 5, 10, 50, 100, 500, and 1000 ng/mL. Four quality control (QC) samples at 2, 5, 50, and 800 ng/mL for plasma were prepared independently of calibration curves. Standards, QC samples, and unknown samples (total volume 15 µL) were added to acetonitrile (200 μL) containing IS (2 ng/mL Verapamil, and 50 ng/mL Dexamethasone) for precipitation of protein. Samples were vortexed and centrifuged (4 °C, 3900 rpm, 15 min), and the supernatant was diluted 3× with ultra-pure water. Diluted supernatant was injected into the LC-MS/MS system for quantitative analysis.

[4] = In vivo brain PK analysis in male CD-1 mice; conditions: IP, 50 mg/kg, n = 3
Description: as §1

DERL-2 cells [5] = test: Cytotoxicity assay (Cell Titer-Blue, 72 h); format: cell-based; conditions: Homo sapiens, one representative of three experiments
Description: (§2) KHYG-1, SNK6, MTA, YT, DERL-2, DERL-7, Mac2a, SU-DHL-1, Myla, Hut78, SeAx, HH, MOTN-1, KOPT-K1, Jurkat, and Loucy cells were plated in 96-well flat-bottom sterile culture plates with low-evaporation lids (Costar #3997). The inhibitors and a vehicle control (0.5% DMSO) were added to the cells following 24 h. After 72 h, Cell Titer-Blue® (Promega #G808A) was added to each well (20 μL), and the fluorescence was measured at 560/590 nm using a Cytation S63 spectrophotometer (BioTek) or on the GloMax® Discover Microplate Reader (Promega, Madison, WI, USA). IC50 values were determined using non-linear regression analysis with GraphPad Prism 6.0 (GraphPad Software Inc., San Diego, CA, USA).

DERL-7 cells = test: Cytotoxicity assay (Cell Titer-Blue, 72 h); format: cell-based; conditions: Homo sapiens, DERL7, one representative of three experiments
Description: as §2

HH cells = test: Cytotoxicity assay (Cell Titer-Blue, 72 h); format: cell-based; conditions: Homo sapiens, one representative of three experiments
Description: as §2

Hut78 cells = test: Cytotoxicity assay (Cell Titer-Blue, 72 h); format: cell-based; conditions: Homo sapiens, one representative of three experiments
Description: as §2

Jurkat cells = test: Cytotoxicity assay (Cell Titer-Blue, 72 h); format: cell-based; conditions: Homo sapiens, one representative of three experiments
Description: as §2

KHYG-1 cells = test: Cytotoxicity assay (Cell Titer-Blue, 72 h); format: cell-based; conditions: Homo sapiens, one representative of three experiments, ANKL to T-ALL panel
Description: as §2

KOPT-K1 cells = test: Cytotoxicity assay (Cell Titer-Blue, 72 h); format: cell-based; conditions: Homo sapiens, KOPTK1, one representative of three experiments
Description: as §2

Loucy cells = test: Cytotoxicity assay (Cell Titer-Blue, 72 h); format: cell-based; conditions: Homo sapiens, one representative of three experiments
Description: as §2

MOTN-1 cells = test: Cytotoxicity assay (Cell Titer-Blue, 72 h); format: cell-based; conditions: Homo sapiens, one representative of three experiments
Description: as §2

MTA cells = test: Cytotoxicity assay (Cell Titer-Blue, 72 h); format: cell-based; conditions: Homo sapiens, one representative of three experiments
Description: as §2

Mac2a cells = test: Cytotoxicity assay (Cell Titer-Blue, 72 h); format: cell-based; conditions: Homo sapiens, one representative of three experiments
Description: as §2

Myla cells = test: Cytotoxicity assay (Cell Titer-Blue, 72 h); format: cell-based; conditions: Homo sapiens, one representative of three experiments
Description: as §2

SNK6 cells = test: Cytotoxicity assay (Cell Titer-Blue, 72 h); format: cell-based; conditions: Homo sapiens, one representative of three experiments
Description: as §2

SU-DHL-1 cells = test: Cytotoxicity assay (Cell Titer-Blue, 72 h); format: cell-based; conditions: Homo sapiens, one representative of three experiments
Description: as §2

SeAx cells = test: Cytotoxicity assay (Cell Titer-Blue, 72 h); format: cell-based; conditions: Homo sapiens, one representative of three experiments
Description: as §2

YT cells = test: Cytotoxicity assay (Cell Titer-Blue, 72 h); format: cell-based; conditions: Homo sapiens, one representative of three experiments
Description: as §2

[6] = test system: acetylation of α-tubulin and histone H3 in acute myeloid leukemia (MV4-11) cells; test: In cellulo target engagement by Western blotting; format: cell-based; conditions: 6 h treatment, Western blot
Description: (§3) Cells (MV4-11 AML, MM.1S multiple myeloma, or YT cells) were incubated with inhibitors prior to washes (2×) with cold phosphate-buffered saline (PBS) and cell lysis with radioimmunoprecipitation assay (RIPA) buffer (20 mM Tris pH 7.4, 150 mM NaCl, 0.5% deoxycholate, 1% Triton X-100, and 0.1% sodium dodecyl sulfate (SDS)). Total protein content was determined through a bicinchoninic acid (BCA) assay (ThermoFisher Scientific, Waltham, MA, USA). The cell lysate proteins were separated via a 4–20% polyacrylamide SDS gel and transferred to a PVDF membrane (Bio-Rad, Hercules, CA, USA). Non-specific binding of the antibody to the membrane was reduced by blocking the membranes with a 5% (w/v) solution of Bovine Serum Albumin powder in TBS-T. This was followed by incubation at 4 °C (overnight) with the following antibodies: acetylated α-tubulin mouse monoclonal (sc-23950, Santa Cruz, Santa Cruz, CA, USA), acetylated Histone H3 (Ac-Lys18, 07-354, Sigma), β-Actin mouse monoclonal (AC-15, sc-69879, Santa Cruz), and […] HSC70 (sc-7298, Santa Cruz). Following overnight incubation, horseradish peroxidase (HRP)-conjugated goat anti-mouse IgG secondary antibody (7076, Cell Signaling) or HRP-linked anti-rabbit IgG secondary antibody (7074, Cell Signaling) was applied to the membrane in a 1:5000 dilution for 1 h. The bands were visualized using clarity Western ECL substrate luminal/enhancer solution and peroxide solution. Western blotting analysis was carried out using Image lab software (Bio-Rad).

[7] = test system: acetylation of α-tubulin and histone H3 in multiple myeloma (MM.1S) cells; test: In cellulo target engagement by Western blotting; format: cell-based; conditions: 6 h treatment, Western blot
Description: as §3

DERL-2 cells [8] = test: FACS apoptosis detection assay (annexin V/PI); format: cell-based, human; conditions: DERL-2, 18 h treatment
Description: DERL-2 cells were seeded, dosed with inhibitors, incubated for 18 h, and washed with ice cold 1× PBS. The resulting cell pellets were resuspended in 1× Binding Buffer (1 × 10^6 cell/mL) from the FITC Annexin V Apoptosis Detection Kit I (BD Pharmingen). Subsequently, the dyes Annexin V (5 μL) and Propidium Iodide (PI, 5 μL) were added to 2.5 × 10^5 cells (250 μL). The suspension was thoroughly mixed and incubated in the dark for 15 min. Following the addition of 250 μL of 1× binding buffer the cells were analyzed by flow cytometry within 1 h using Cytoflex S (Beckman Coulter, Brea, CA, USA).

HDAC6 = HDAC6 (Homo sapiens, UniProt Q9UBN7); test: Intracellular target engagement residence time assay (NanoBRET) in HeLa cells; format: cell-based; conditions: HeLa cells transiently expressing HDAC6-NanoLuc full-length fusion protein
[9] = mouse, plasma, male CD-1 mice, IP, 50 mg/kg, n = 3

IC50 [1]: 0.0288 µM | half-life [2]: 1.55 h | in vivo t1/2 longer than that of KT-531 ([3]; CD-1 mice, KT-531 at a lower dose): > 3.5 fold | in vivo t1/2 longer than that of NN-390 ([3]; CD-1 mice, NN-390 at a lower dose): ~ 1.8 fold | AUC(0-inf) [3, 9]: 9920 ng·h/mL | AUC(0-t) [3, 9]: 9860 ng·h/mL | Cmax [3, 9]: 3190 ng/mL | half-life [3, 9]: 3.53 h | Levels in the brain [4]: no observable levels
Compound: CC(C)N(Cc1ccc(C(=O)NO)cc1F)S(=O)(=O)c1cc(F)c(F)c(F)c1F [NN-429]
IC50 (DERL-2 cells [5]): 2.32 µM | IC50 (DERL-7 cells): 2.21 µM | IC50 (HH cells): 2.95 µM | IC50 (Hut78 cells): 16.7 µM | IC50 (Jurkat cells): 5.46 µM | IC50 (KHYG-1 cells): 7.25 µM | IC50 (KOPT-K1 cells): 6.16 µM | IC50 (Loucy cells): 3.6 µM | IC50 (MOTN-1 cells): 2.75 µM | IC50 (MTA cells): 0.72 µM | IC50 (Mac2a cells): 15.1 µM | IC50 (Myla cells): > 50 µM | IC50 (SNK6 cells): 12 µM | IC50 (SU-DHL-1 cells): 4.72 µM | IC50 (SeAx cells): 12.4 µM | IC50 (YT cells): 1.29 µM | Target engagement (α-tubulin vs histone H3 acetylation) [6]: strong target engagement with minimal acetylation of off-target histone H3 | Concentration with visible off-target interaction (histone H3 acetylation) [7]: 5 µM | Lowest concentration with dose-dependent increase in acetylation of α-tubulin [7]: 0.1 µM | Cells undergoing early-stage apoptosis (annexin V+/PI−) (DERL-2 cells [8]; 0.1 μM): 15% | Cells undergoing early-stage apoptosis (annexin V+/PI−) (DERL-2 cells [8]; 5 μM): 56%

Intracellular residence time in HDAC6 (HDAC6): 97 min
Compound: CC(C)N(Cc1ccc(C(=O)NO)cc1)S(=O)(=O)c1cc(F)c(F)c(F)c1F [NN-390]

Compound: O=C(CCCCCCNC(=O)c1cnc(N(c2ccccc2)c2ccccc2Cl)nc1)NO [Citarinostat, citarinostat]
IC50 [1]: 0.0902 µM | Binding affinity lower than NN-429 (FP) ([1]; FP IC50 vs NN-429): 3 fold
